Measured values: paper PMC10938783, “A novel pan-PI3K inhibitor KTC1101 synergizes with anti-PD-1 therapy by targeting tumor suppression and immune activation” (Molecular Cancer, 2024)

Test system: B16 cells gene expression
Assay: RNA-Seq (DEGs, GSEA, heatmaps) of B16 cells
Settings: for NES / enrichmentScore: KTC 0.2μM
[1] = B16 cells, GSEA gene set HALLMARK_ADIPOGENESIS
[2] = B16 cells, GSEA gene set HALLMARK_ALLOGRAFT_REJECTION
[3] = B16 cells, GSEA gene set HALLMARK_ANDROGEN_RESPONSE
[4] = B16 cells, GSEA gene set HALLMARK_APICAL_JUNCTION
[5] = B16 cells, GSEA gene set HALLMARK_APICAL_SURFACE
[6] = B16 cells, GSEA gene set HALLMARK_APOPTOSIS
[7] = B16 cells, GSEA gene set HALLMARK_BILE_ACID_METABOLISM
[8] = B16 cells, GSEA gene set HALLMARK_CHOLESTEROL_HOMEOSTASIS
[9] = B16 cells, GSEA gene set HALLMARK_COAGULATION
[10] = B16 cells, GSEA gene set HALLMARK_COMPLEMENT
[11] = B16 cells, GSEA gene set HALLMARK_DNA_REPAIR
[12] = B16 cells, GSEA gene set HALLMARK_E2F_TARGETS
[13] = B16 cells, GSEA gene set HALLMARK_EPITHELIAL_MESENCHYMAL_TRANSITION
[14] = B16 cells, GSEA gene set HALLMARK_ESTROGEN_RESPONSE_EARLY
[15] = B16 cells, GSEA gene set HALLMARK_ESTROGEN_RESPONSE_LATE
[16] = B16 cells, GSEA gene set HALLMARK_FATTY_ACID_METABOLISM
[17] = B16 cells, GSEA gene set HALLMARK_G2M_CHECKPOINT
[18] = B16 cells, GSEA gene set HALLMARK_GLYCOLYSIS
[19] = B16 cells, GSEA gene set HALLMARK_HEDGEHOG_SIGNALING
[20] = B16 cells, GSEA gene set HALLMARK_HEME_METABOLISM
[21] = B16 cells, GSEA gene set HALLMARK_HYPOXIA
[22] = B16 cells, GSEA gene set HALLMARK_IL2_STAT5_SIGNALING
[23] = B16 cells, GSEA gene set HALLMARK_IL6_JAK_STAT3_SIGNALING
[24] = B16 cells, GSEA gene set HALLMARK_INFLAMMATORY_RESPONSE
[25] = B16 cells, GSEA gene set HALLMARK_INTERFERON_ALPHA_RESPONSE
[26] = B16 cells, GSEA gene set HALLMARK_INTERFERON_GAMMA_RESPONSE
[27] = B16 cells, GSEA gene set HALLMARK_KRAS_SIGNALING_DN
[28] = B16 cells, GSEA gene set HALLMARK_KRAS_SIGNALING_UP
[29] = B16 cells, GSEA gene set HALLMARK_MITOTIC_SPINDLE
[30] = B16 cells, GSEA gene set HALLMARK_MTORC1_SIGNALING
[31] = B16 cells, GSEA gene set HALLMARK_MYC_TARGETS_V1
[32] = B16 cells, GSEA gene set HALLMARK_MYC_TARGETS_V2
[33] = B16 cells, GSEA gene set HALLMARK_MYOGENESIS
[34] = B16 cells, GSEA gene set HALLMARK_NOTCH_SIGNALING
[35] = B16 cells, GSEA gene set HALLMARK_OXIDATIVE_PHOSPHORYLATION
[36] = B16 cells, GSEA gene set HALLMARK_P53_PATHWAY

In the case of COc1cc(N)cc2c1nc(C(F)F)n2-c1nc(N2CCCOCC2)nc(N2CCOCC2)n1 [KTC1101, 2-(difluoromethyl)-4-methoxy-1-(4-morpholino-6-(1,4-oxazepan-4-yl)-1,3,5-triazin-2-yl)-1H-benzo[d]imidazol-6-amine], the “NES, mmu05152 Tuberculosis” value is reported as -0.8664, the “NES, mmu05164 Influenza A” value is reported as 0.7158 and the “NES, mmu05169 Epstein-Barr virus infection” value is reported as 0.9901. The “enrichmentScore, mmu05152 Tuberculosis” value was -0.1994, the “enrichmentScore, mmu05164 Influenza A” value was 0.2008 and the “enrichmentScore, mmu05169 Epstein-Barr virus infection” value was 0.2613. For the same compound, the “immune pathways TNFα signaling via NF-κB, inflammatory response, chemokine signaling, cytokine-cytokine receptor interaction, IL-2-STAT5 (GSEA)” value (B16 cells, 0.04 and 0.2 μM, 48 h) was “significantly upregulated at both tested concentrations”, the NES [1] was -1.91 and the enrichmentScore [1] was -0.3889. It also gave an NES [2] of 1.691, an enrichmentScore [2] of 0.4865 and an NES [3] of 0.8627. It also gave an enrichmentScore [3] of 0.2417, an NES [4] of 1.3836 and an enrichmentScore [4] of 0.3738. It also gave an NES [5] of -2.057, an enrichmentScore [5] of -0.6354 and an NES [6] of 0.9502. It also gave an enrichmentScore [6] of 0.2533, an NES [7] of -0.7889 and an enrichmentScore [7] of -0.209. The NES [8] was -2.882, the enrichmentScore [8] was -0.7203 and the NES [9] was 2.055. It also gave an enrichmentScore [9] of 0.594, an NES [10] of 1.839 and an enrichmentScore [10] of 0.5017. The NES [11] was -0.6206, the enrichmentScore [11] was -0.1386 and the NES [12] was -2.092. It also gave an enrichmentScore [12] of -0.4182, an NES [13] of 1.653 and an enrichmentScore [13] of 0.443. The NES [14] was 1.194, the enrichmentScore [14] was 0.32 and the NES [15] was -1.354. For the same compound, the enrichmentScore [15] was -0.2968, the NES [16] was -1.5293 and the enrichmentScore [16] was -0.3352. For the same compound, the NES [17] was -1.723, the enrichmentScore [17] was -0.3452 and the NES [18] was -3.021. It also gave an enrichmentScore [18] of -0.6285, an NES [19] of -1.553 and an enrichmentScore [19] of -0.4866. The NES [20] was -0.8539, the enrichmentScore [20] was -0.1842 and the NES [21] was -1.667. For the same compound, the enrichmentScore [21] was -0.3411, the NES [22] was 1.6961 and the enrichmentScore [22] was 0.4531. The NES [23] was 1.437, the enrichmentScore [23] was 0.4564 and the NES [24] was 1.614. The enrichmentScore [24] was 0.4471, the NES [25] was -0.8696 and the enrichmentScore [25] was -0.2269. It also gave an NES [26] of 1.08, an enrichmentScore [26] of 0.2921 and an NES [27] of 1.399. It also gave an enrichmentScore [27] of 0.4365, an NES [28] of 2.0673 and an enrichmentScore [28] of 0.5585. It also gave an NES [29] of -1.3285, an enrichmentScore [29] of -0.2672 and an NES [30] of -3.5229. The enrichmentScore [30] was -0.6921, the NES [31] was -0.8926 and the enrichmentScore [31] was -0.1781. For the same compound, the NES [32] was -0.5144, the enrichmentScore [32] was -0.1367 and the NES [33] was 1.795. For the same compound, the enrichmentScore [33] was 0.4818, the NES [34] was 1.2511 and the enrichmentScore [34] was 0.4419. It also gave an NES [35] of -2.275, an enrichmentScore [35] of -0.46 and an NES [36] of -1.372. The enrichmentScore [36] was -0.2855 and the NES (B16 cells, GSEA gene set HALLMARK_PEROXISOME) was -1.588.
